This is an account of results in patent US10588935B2, “FC receptor (FcRn) binding peptides and uses thereof” (THE BRIGHAM AND WOMEN'S HOSPITAL, INC., priority 2013, dated 2020).

Each structure is given as a SMILES string. Read-outs that look alike come from different tables or passages of the source. Bridge positions count the residues as written; N and C are the ends. Peptide text beside a SMILES is read from it.

For the assay, the target named is T1, soluble human FcRn (Homo sapiens, UniProt P55899).
T1 construct: Soluble human FcRn was expressed and purified by Biogen-Idec as previously described (29)
Put plainly: SPR (Biacore) affinity of peptides for immobilized soluble human FcRn. In kind it is binding. To be noted: Table 2. How it is done: SPR analyses were conducted using a Biacore 3000 or T100 instrument. Research-grade CM5 sensor chips and all coupling reagents for immobilization were purchased from Biacore. All proteins were cross-linked to the dextran surface of a CM5 sensor chip by standard amine coupling chemistry as recommended by Biacore. […] Binding experiments were performed at pH 6.0 or 7.4 using 50 mM phosphate, 100 mM sodium chloride and 0.01% surfactant P20. […] Bound albumin protein was then allowed to dissociate from the chip for 5 minutes with running buffer. Any remaining albumin was removed from the chip with a 60 second injection (2 cycles) of pH 8.0 Tris-HCl regeneration buffer (1 M Tris pH 8.0) at 25 μL/min flow rate. The binding responses recorded near the end of the association phase were plotted as a function of concentration. Equilibrium dissociation constants (KD), were derived from sensorgrams using the 1:1 binding model of BIAevaluation software 4.1.
Background: Surface plasmon resonance follows binding to a sensor surface in real time, without labels.

Setting [1] is: pH 6, immobilized shFcRn, data fit steady state or 2 site, read-out: Kd, pH 6** Biacore.
[2] abbreviates: pH 7.4, data only 100 uM, therefore Kd may be higher, read-out: Kd, pH 7.4 Biacore.

T1 sequence (P55899 24-297 limits assumed): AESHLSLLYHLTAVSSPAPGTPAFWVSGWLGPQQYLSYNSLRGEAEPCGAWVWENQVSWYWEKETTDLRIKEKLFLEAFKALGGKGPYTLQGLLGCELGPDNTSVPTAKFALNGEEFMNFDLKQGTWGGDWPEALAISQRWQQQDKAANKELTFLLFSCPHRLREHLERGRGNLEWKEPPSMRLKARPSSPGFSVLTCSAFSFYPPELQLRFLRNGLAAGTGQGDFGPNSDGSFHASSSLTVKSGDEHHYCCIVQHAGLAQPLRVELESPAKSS
T1 sequence (P61769 21-119 partner): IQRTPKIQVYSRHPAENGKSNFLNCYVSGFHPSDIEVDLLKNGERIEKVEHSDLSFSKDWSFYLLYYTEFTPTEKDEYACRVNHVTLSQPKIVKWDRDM

With `CSCC[C@@H]1NC(=O)[C@H](CCC(=O)O)NC(=O)[C@H](CCC(=O)O)NC(=O)[C@H](CC(=O)O)NC(=O)[C@H](Cc2c[nH]c3ccccc23)NC(=O)[C@H](Cc2c[nH]c3ccccc23)NC(=O)[C@@H](NC(=O)[C@H](Cc2c[nH]cn2)NC(=O)[C@H](CCSC)NC(=O)[C@@H](NC(C)=O)C(C)C)CSSC[C@@H](C(=O)N[C@@H](CCCNC(=N)N)C(=O)N[C@@H](C)C(=O)N[C@@H](Cc2ccccc2)C(N)=O)NC(=O)[C@H](CC(C)C)NC1=O` [SYN1533] (Ac-VMHCWWDEEMLCRAF-NH2; disulfide 4-12 (inferred)), the “Kd Ratio 7.4/6.0” value stood at 106.

A word on the Kd: it is the concentration at which binding is half-saturated. For the molecule `CSCC[C@H](NC(=O)[C@@H](NC(C)=O)C(C)C)C(=O)N[C@@H](Cc1c[nH]cn1)C(=O)N[C@H]1CSSC[C@@H](C(=O)N[C@@H](CC(=O)O)C(=O)N[C@@H](CCC(N)=O)C(=O)N[C@H](C(N)=O)C(C)C)NC(=O)[C@H](CCCCN)NC(=O)[C@H](Cc2ccccc2)NC(=O)[C@H](CCC(=O)O)NC(=O)[C@H](CCC(=O)O)NC(=O)[C@H](CC(=O)O)NC(=O)[C@H](Cc2c[nH]c3ccccc23)NC(=O)[C@H](Cc2ccccc2)NC1=O` [SYN1260] (Ac-VMHCFWDEEFKCDQV-NH2; disulfide 4-12 (inferred)), the “Kd Ratio 7.4/6.0” value was 73. The Kd under setting [1] amounted to 300 nM. Also, the Kd under setting [2] came out at 22000 nM.

Consider `CSCC[C@H](NC(=O)[C@H](C)NC(C)=O)C(=O)N[C@H](C(=O)N[C@H]1CSSC[C@@H](C(=O)N[C@@H](CCC(=O)O)C(=O)N[C@@H](Cc2ccc(O)cc2)C(=O)N[C@H](C(N)=O)C(C)C)NC(=O)[C@H](CO)NC(=O)[C@H](Cc2ccccc2)NC(=O)CNC(=O)[C@H](CC(=O)O)NC(=O)[C@H](CC(=O)O)NC(=O)[C@H](Cc2c[nH]c3ccccc23)NC(=O)[C@H](CCCCN)NC1=O)[C@@H](C)O` [SYN1144] (Ac-AMTCKWDDGFSCEYV-NH2; disulfide 4-12 (inferred)), for which the “Kd Ratio 7.4/6.0” value turned out to be 23.3.

With `CSCC[C@H](NC(=O)[C@H](Cc1ccc(O)cc1)NC(C)=O)C(=O)N[C@H](C(=O)N[C@H]1CSSC[C@@H](C(=O)N[C@@H](CCC(=O)O)C(=O)N[C@@H](Cc2ccc(O)cc2)C(N)=O)NC(=O)[C@H](CO)NC(=O)[C@H](Cc2ccccc2)NC(=O)CNC(=O)[C@H](CC(=O)O)NC(=O)[C@H](CC(=O)O)NC(=O)[C@H](Cc2c[nH]c3ccccc23)NC(=O)[C@H](CCCCN)NC1=O)[C@@H](C)O` [SYN1164] (Ac-YMTCKWDDGFSCEY-NH2; disulfide 4-12 (inferred)), the equilibrium dissociation constant (Kd) under setting [1] worked out at 570 ± 20 nM.

For `CSCC[C@@H]1NC(=O)[C@H](CCC(=O)O)NC(=O)[C@H](CCC(=O)O)NC(=O)[C@H](CC(=O)O)NC(=O)[C@H](Cc2c[nH]c3ccccc23)NC(=O)[C@H](Cc2ccccc2)NC(=O)[C@@H](NC(=O)[C@H](CCCCN)NC(=O)[C@H](CCSC)NC(=O)[C@@H](NC(C)=O)C(C)C)CSSC[C@@H](C(=O)N[C@@H](CCCNC(=N)N)C(=O)N[C@@H](C)C(=O)N[C@@H](Cc2ccccc2)C(N)=O)NC(=O)[C@H](CC(C)C)NC1=O` [SYN1535] (Ac-VMKCFWDEEMLCRAF-NH2; disulfide 4-12 (inferred)), the “Kd Ratio 7.4/6.0” value was 35.

With `CSCC[C@H](NC(=O)[C@@H](NC(C)=O)C(C)C)C(=O)N[C@@H](CCCCN)C(=O)N[C@H]1CSSC[C@@H](C(=O)N[C@@H](CCCNC(=N)N)C(=O)N[C@@H](C)C(=O)N[C@@H](Cc2ccccc2)C(N)=O)NC(=O)[C@H](CC(C)C)NC(=O)[C@H](Cc2ccccc2)NC(=O)[C@H](CCC(=O)O)NC(=O)[C@H](CCC(=O)O)NC(=O)[C@H](CC(=O)O)NC(=O)[C@H](Cc2c[nH]c3ccccc23)NC(=O)[C@H](Cc2c[nH]c3ccccc23)NC1=O` [SYN1536] (Ac-VMKCWWDEEFLCRAF-NH2; disulfide 4-12 (inferred)), the “Kd Ratio 7.4/6.0” value is reported as 61. Further, the Kd under setting [1] worked out at 31 nM. For the same molecule, under setting [2], the Kd worked out at 1100 nM.
